52 compounds from patent publication US9365588B2, “Benzoxazines as modulators of ion channels” (Vertex Pharmaceuticals Incorporated, priority 2011, dated 2016) can be followed below.

Some results are limits rather than exact numbers.

human NaV 1.7, sequence (Q15858 whole entry): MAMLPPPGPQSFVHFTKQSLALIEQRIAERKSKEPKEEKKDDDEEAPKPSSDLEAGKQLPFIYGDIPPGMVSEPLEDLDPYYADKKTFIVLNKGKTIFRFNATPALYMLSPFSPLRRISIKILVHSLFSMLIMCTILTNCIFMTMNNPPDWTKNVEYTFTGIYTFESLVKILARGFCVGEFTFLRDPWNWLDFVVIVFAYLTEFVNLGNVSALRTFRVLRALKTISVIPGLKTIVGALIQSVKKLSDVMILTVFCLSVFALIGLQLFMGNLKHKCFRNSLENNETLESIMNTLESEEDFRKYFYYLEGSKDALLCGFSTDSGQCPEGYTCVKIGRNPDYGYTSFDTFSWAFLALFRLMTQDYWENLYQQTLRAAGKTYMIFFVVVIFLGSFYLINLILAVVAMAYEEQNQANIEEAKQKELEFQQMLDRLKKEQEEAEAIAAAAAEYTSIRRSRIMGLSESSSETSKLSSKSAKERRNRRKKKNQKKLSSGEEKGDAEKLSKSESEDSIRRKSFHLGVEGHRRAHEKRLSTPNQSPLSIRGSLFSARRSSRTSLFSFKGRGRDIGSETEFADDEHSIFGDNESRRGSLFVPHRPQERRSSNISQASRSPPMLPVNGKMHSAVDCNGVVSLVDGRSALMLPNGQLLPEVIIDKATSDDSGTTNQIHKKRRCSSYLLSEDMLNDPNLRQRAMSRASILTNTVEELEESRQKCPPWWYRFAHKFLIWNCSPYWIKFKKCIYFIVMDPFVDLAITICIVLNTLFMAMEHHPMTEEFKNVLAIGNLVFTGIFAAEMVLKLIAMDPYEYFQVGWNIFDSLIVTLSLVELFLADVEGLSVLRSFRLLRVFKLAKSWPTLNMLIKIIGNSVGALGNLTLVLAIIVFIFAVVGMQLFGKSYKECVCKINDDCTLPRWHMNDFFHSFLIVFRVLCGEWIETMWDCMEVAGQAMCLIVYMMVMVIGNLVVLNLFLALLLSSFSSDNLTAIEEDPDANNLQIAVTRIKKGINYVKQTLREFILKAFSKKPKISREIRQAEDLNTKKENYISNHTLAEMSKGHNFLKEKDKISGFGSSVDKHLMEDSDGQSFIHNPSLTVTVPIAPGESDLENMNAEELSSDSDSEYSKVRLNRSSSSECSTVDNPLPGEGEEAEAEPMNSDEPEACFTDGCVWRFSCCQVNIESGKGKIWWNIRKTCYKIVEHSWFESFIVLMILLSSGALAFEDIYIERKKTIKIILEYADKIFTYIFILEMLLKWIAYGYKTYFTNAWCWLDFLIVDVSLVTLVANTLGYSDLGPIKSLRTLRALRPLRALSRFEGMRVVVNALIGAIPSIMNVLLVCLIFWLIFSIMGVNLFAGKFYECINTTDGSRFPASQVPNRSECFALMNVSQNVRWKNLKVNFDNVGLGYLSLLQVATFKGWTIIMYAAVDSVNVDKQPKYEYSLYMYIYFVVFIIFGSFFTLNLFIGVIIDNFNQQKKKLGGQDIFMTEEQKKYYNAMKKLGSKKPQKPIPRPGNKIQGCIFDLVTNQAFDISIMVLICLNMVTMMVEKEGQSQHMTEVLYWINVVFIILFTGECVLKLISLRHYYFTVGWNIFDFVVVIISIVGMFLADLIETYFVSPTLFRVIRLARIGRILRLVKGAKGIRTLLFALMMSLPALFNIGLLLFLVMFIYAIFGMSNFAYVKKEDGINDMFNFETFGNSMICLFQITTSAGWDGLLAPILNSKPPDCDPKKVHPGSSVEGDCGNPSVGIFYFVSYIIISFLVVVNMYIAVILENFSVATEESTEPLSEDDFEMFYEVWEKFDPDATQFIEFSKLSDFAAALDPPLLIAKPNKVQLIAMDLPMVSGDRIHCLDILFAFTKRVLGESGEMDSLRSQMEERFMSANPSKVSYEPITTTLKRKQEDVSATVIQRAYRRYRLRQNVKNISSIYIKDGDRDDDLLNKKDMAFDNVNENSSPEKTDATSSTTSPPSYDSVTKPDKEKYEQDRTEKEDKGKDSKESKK

For the experiment, the target named is human NaV 1.7 (Homo sapiens, UniProt Q15858). In words: E-VIPR optical membrane potential assay with electrical stimulation. The format is cell-based. To be noted: sodium channel inhibition; read-out: Binned Activity Data (IC50). An excerpt:
Assays for Detecting and Measuring NaV Inhibition Properties of Compound E-VIPR Optical Membrane Potential Assay Method with Electrical Stimulation
Sodium channels are voltage-dependent proteins that can be activated by inducing membrane voltage changes by applying electric fields. The electrical stimulation instrument and methods of use are described in Ion Channel Assay Methods PCT/US01/21652, herein incorporated by reference and are referred to as E-VIPR. The instrument comprises a microtiter plate handler, an optical system for exciting the coumarin dye while simultaneously recording the coumarin and oxonol emissions, a waveform generator, a current- or voltage-controlled amplifier, and a device for inserting electrodes in well. Under integrated computer control, this instrument passes user-programmed electrical stimulus protocols to cells within the wells of the microtiter plate.
24 hours before the assay on E-VIPR, HEK cells expressing human NaV subtype, like NaV 1.7, are seeded in 384-well poly-lysine coated plates at 15,000-20,000 cells per well. Other subtypes are performed in an analogous mode in a cell line expressing the NaV of interest. HEK cells are grown in media (exact composition is specific to each cell type and NaV subtype) supplemented with 10% FBS (Fetal Bovine Serum, qualified; GibcoBRL #16140-071) and 1% Pen-Strep (Penicillin-Streptomycin; GibcoBRL #15140-122). Cells are grown in vented cap flasks, in 90% humidity and 10% CO2, to 100% confluence. They are usually split by trypsinization 1:10 or 1:20, depending on scheduling needs, and grown for 2-3 days before the next split.
Bath1 buffer. Glucose 10 mM (1.8 g/L), Magnesium Chloride (Anhydrous), 1 mM (0.095 g/L), Calcium Chloride, 2 mM (0.222 g/L), HEPES 10 mM (2.38 g/L), Potassium Chloride, 4.5 mM (0.335 g/L), Sodium Chloride 160 mM (9.35 g/L).
Hexyl Dye Solution: Bath1 Buffer+0.5% β-cyclodextrin (make this prior to use, Sigma #C4767), 8 μM CC2-DMPE+2.5 μM DiSBAC6(3). To make the solution Add volume of 10% Pluronic F127 stock equal to volumes of CC2-DMPE+DiSBAC6(3). The order of preparation is first mix Pluronic and CC2-DMPE, then add DiSBAC6(3) while vortexing, then add Bath1+β-Cyclodextrin.
1) Pre-spot compounds (in neat DMSO) into compound plates. Vehicle control (neat DMSO), the positive control (20 mM DMSO stock tetracaine, 125 μM final in assay) and test compounds are added to each well at 160× desired final concentration in neat DMSO. Final compound plate volume will be 80 μL (80-fold intermediate dilution from 1 μL DMSO spot; 160-fold final dilution after transfer to cell plate). Final DMSO concentration for all wells in assay is 0.625%.
2) Prepare Hexyl Dye Solution.
3) Prepare cell plates. On the day of the assay, medium is aspirated and cells are washed three times with 100 μL of Bath1 Solution, maintaining 25 μL residual volume in each well.
4) Dispense 25 μL per well of Hexyl Dye Solution into cell plates. Incubate for 20-35 minutes at room temp or ambient conditions.
5) Dispense 80 μL per well of Bath1 into compound plates. Acid Yellow-17 (1 mM) is added and Potassium Chloride can be altered from 4.5 to 20 mM depending on the NaV subtype and assay sensitivity.
6) Wash cell plates three times with 100 μL per well of Bath1, leaving 25 μL of residual volume. Then transfer 25 uL per well from Compound Plates to Cell Plates. Incubate for 20-35 minutes at room temp/ambient condition
7) Read Plate on E-VIPR. Use the current-controlled amplifier to deliver stimulation wave pulses for typically 9 seconds and a scan rate of 400 Hz. A pre-stimulus recording is performed for 0.5 seconds to obtain the un-stimulated intensities baseline. The stimulatory waveform is applied for 9 seconds followed by 0.5 seconds of post-stimulation recording to examine the relaxation to the resting state. […]
As to `Cn1ncc2c1-c1ccc(Cl)cc1OC21CCN(C(=O)c2cccc(F)c2OC(F)F)CC1` [Compound 108], the IC50 is not above 2 µM. `COc1c(C)cccc1C(=O)N1CCC2(CC1)Oc1ccccc1-c1c2cnn1C` [Compound 109]: the 50% inhibitory concentration (IC50) was not above 2 µM.

For the compound `COc1ccc(C(=O)N2CCC3(CC2)Oc2cc(Cl)ccc2-n2cccc23)c(C)c1` [Compound 111], the 50% inhibitory concentration (IC50) is not above 2 µM. `COc1cc(C(=O)N2CCC3(CC2)Oc2ccccc2-n2cccc23)ccc1O[C@@H]1CCOC1` [Compound 112]: the IC50 is not above 2 µM. As for `Cn1cc2c(n1)-c1ccccc1OC21CCN(C(=O)c2cccc3cccnc23)CC1` [Compound 113], the 50% inhibitory concentration (IC50) was not above 2 µM. Turning to `COc1cc(C(=O)N2CCC3(CC2)Oc2ccccc2-n2c(C(C)=O)ccc23)ccc1OC(C)C` [Compound 114], the IC50 is not above 2 µM. Under `COc1ccc(F)cc1C(=O)N1CCC2(CC1)Oc1ccccc1-n1c(C#N)ccc12` [Compound 115] stands not above 2 µM; under `COc1cc(OC(F)(F)F)ccc1C(=O)N1CCC2(CC1)Oc1cc(Cl)ccc1-n1cccc12` [Compound 116], not above 2 µM. On to `CC(C)Oc1ccc(C(=O)N2CCC3(CC2)Oc2ccc(F)cc2-c2nn(C)cc23)cc1` [Compound 117], for which the IC50 was not above 2 µM.

Turning to `CC(C)S(=O)(=O)c1ccc(C(=O)N2CCC3(CC2)Oc2ccccc2-n2ccnc23)cc1` [Compound 119], the IC50 was in the range of 2 to 5 µM. Consider `COc1cc(OC(F)(F)F)ccc1C(=O)N1CCC2(CC1)Oc1ccccc1-c1c2cnn1C` [Compound 121], for which the half-inhibitory concentration (IC50) is not above 2 µM. For `Cc1cc(C(=O)N2CCC3(CC2)Oc2ccccc2-n2c(C(F)(F)F)ccc23)ccc1S(C)(=O)=O` [Compound 123], the half-maximal inhibitory concentration (IC50) is not above 2 µM. Consider `N#Cc1ccc2n1-c1ccccc1OC21CCN(C(=O)c2cccc(F)c2OC(F)F)CC1` [Compound 125], for which the IC50 was not above 2 µM. As to `CC[C@H](C)Oc1ccc(C(=O)N2CCC3(CC2)Oc2ccccc2-n2cccc23)cc1C(F)(F)F` [Compound 126], the IC50 was not above 2 µM. As to `COc1cc(F)c(F)cc1C(=O)N1CCC2(CC1)Oc1ccccc1-c1c2cnn1C` [Compound 127], the IC50 is more than 5 µM. `CCCOc1ccc(C(=O)N2CCC3(CC2)Oc2ccccc2-c2c3cnn2C)cc1` [Compound 128]: the IC50 is not above 2 µM. For `COc1ccc(C(=O)N2CCC3(CC2)Oc2cc(Cl)ccc2-n2cccc23)c(C(F)(F)F)c1` [Compound 129], the IC50 was not above 2 µM. For the compound `CCOc1ncccc1C(=O)N1CCC2(CC1)Oc1ccccc1-n1c(C(F)(F)F)ccc12` [Compound 130], the IC50 was not above 2 µM. Then `CC[C@@H](C)Oc1ccc(C(=O)N2CCC3(CC2)Oc2ccccc2-n2cccc23)cc1C(F)(F)F` [Compound 131], with not above 2 µM.

Take `CC(C)Oc1ccc(C(=O)N2CCC3(CC2)Oc2ccccc2-c2c3cnn2C)cc1Cl` [Compound 135]: the half-inhibitory concentration (IC50) was not above 2 µM. Then `CCc1ccc(C(=O)N2CCC3(CC2)Oc2cc(CN)ccc2-n2cccc23)cc1OC` [Compound 137], with more than 5 µM; and `Cn1ncc2c1-c1ccccc1OC21CCN(C(=O)c2cccnc2Oc2ccccc2)CC1` [Compound 138], with not above 2 µM. As for `COCCOc1ccc(C(=O)N2CCC3(CC2)Oc2cc(Cl)ccc2-n2cccc23)cc1OC` [Compound 139], the IC50 is not above 2 µM. Consider `COc1cc(C(=O)N2CCC3(CC2)Oc2ccccc2-n2cccc23)ccc1OC[C@@H](O)CO` [Compound 140], for which the IC50 was not above 2 µM. As for `Cc1cc(C(=O)N2CCC3(CC2)Oc2ccccc2-c2c3cnn2C)ccc1S(C)(=O)=O` [Compound 141], the concentration for half-maximal inhibition (IC50) is not above 2 µM.

With `CC[C@H](C)Oc1ccc(C(=O)N2CCC3(CC2)Oc2cc(F)ccc2-n2cccc23)cc1OC` [Compound 142], the half-inhibitory concentration (IC50) is not above 2 µM. With `COc1ccc(C(=O)N2CCC3(CC2)Oc2ccccc2-c2c3cnn2C)cc1C(F)(F)F` [Compound 143], the IC50 lay in the range of 2 to 5 µM. As for `CC[C@@H](C)Oc1ccc(C(=O)N2CCC3(CC2)Oc2ccccc2-n2cccc23)cc1C#N` [Compound 145], the IC50 was not above 2 µM. For `COc1cc(C(=O)N2CCC3(CC2)Oc2ccccc2-c2c3cnn2C)ccc1OC[C@H](C)OC` [Compound 146], the IC50 is not above 2 µM. On to `Cn1cccc(C(=O)N2CCC3(CC2)Oc2cc(Cl)ccc2-n2cccc23)c1=O` [Compound 147], for which the 50% inhibitory concentration (IC50) was not above 2 µM.

With `CC(C)NC(=O)c1ccc(C(=O)N2CCC3(CC2)Oc2ccccc2-c2c3cnn2C)cc1` [Compound 150], the IC50 is more than 5 µM. In the case of `O=C(c1ccc(S(=O)(=O)[C@H]2CCOC2)cc1)N1CCC2(CC1)Oc1ccccc1-n1c(C(F)(F)F)ccc12` [Compound 151], the IC50 was not above 2 µM. On to `Cc1cc(C(=O)N2CCC3(CC2)Oc2ccccc2-n2ccnc23)ccc1OC(C)C` [Compound 153], for which the half-maximal inhibitory concentration (IC50) is not above 2 µM. Turning to `CCn1ncc2c1-c1ccccc1OC21CCN(C(=O)c2cccc(F)c2OC)CC1` [Compound 154], the IC50 was not above 2 µM. As to `Cn1ncc2c1-c1ccccc1OC21CCN(C(=O)c2ccnc(N3CCCCC3)c2)CC1` [Compound 155], the IC50 was not above 2 µM. Turning to `COc1cc(C(=O)N2CCC3(CC2)Oc2ccccc2-n2c(C#N)ccc23)ccc1OC(C)C` [Compound 156], the IC50 is not above 2 µM. On to `Cc1cc(OC(C)C)ccc1C(=O)N1CCC2(CC1)Oc1ccccc1-c1c2cnn1C` [Compound 158], for which the half-maximal inhibitory concentration (IC50) was not above 2 µM. Under `Cc1ccc(C(=O)N2CCC3(CC2)Oc2ccccc2-n2cccc23)cc1C` [Compound 159] stands not above 2 µM. As to `Cn1ncc2c1-c1ccccc1OC21CCN(C(=O)c2cccc3c2CCO3)CC1` [Compound 160], the IC50 is more than 5 µM. With `COc1ccc(C(=O)N2CCC3(CC2)Oc2ccccc2-n2cc(C)cc23)cc1C(F)(F)F` [Compound 161], the half-maximal inhibitory concentration (IC50) was not above 2 µM.

With `COc1ccc(C(=O)N2CCC3(CC2)Oc2ccccc2-n2c(C(F)(F)F)ccc23)c(OC)c1OC` [Compound 164], the IC50 was not above 2 µM. For the compound `COc1cc(C(=O)N2CCC3(CC2)Oc2cccnc2-n2cccc23)ccc1OCCC(C)C` [Compound 165], the IC50 is not above 2 µM.

On to `COC(C)(C)c1ccc(C(=O)N2CCC3(CC2)Oc2cc(F)ccc2-n2cccc23)cc1C` [Compound 166], for which the IC50 is not above 2 µM. Then `CCn1ncc2c1-c1ccccc1OC21CCN(C(=O)c2ccccc2OC(F)F)CC1` [Compound 167], with not above 2 µM; and `COc1cc(C(=O)N2CCC3(CC2)Oc2cc(F)ccc2-n2cccc23)ccc1C(C)(C)O` [Compound 168], with not above 2 µM.

As for `COc1cc(C(=O)N2CCC3(CC2)Oc2ccccc2-c2c3cnn2C)ccc1OC(F)F` [Compound 169], the 50% inhibitory concentration (IC50) was in the range of 2 to 5 µM. Consider `O=C(c1ccc(O[C@@H]2CCOC2)c(C(F)(F)F)c1)N1CCC2(CC1)Oc1ccccc1-n1cccc12` [Compound 170], for which the half-inhibitory concentration (IC50) was not above 2 µM. Under `CC(=O)c1ccc2n1-c1ccccc1OC21CCN(C(=O)c2ccc(OC(C)C)c(C)c2)CC1` [Compound 171] stands not above 2 µM. For the compound `COC[C@H](C)Oc1ccc(C(=O)N2CCC3(CC2)Oc2cc(Cl)ccc2-n2cccc23)cc1OC` [Compound 172], the IC50 is not above 2 µM. As to `Cn1cc2c(n1)-c1ccccc1OC21CCN(C(=O)c2ccc3ncsc3c2)CC1` [Compound 173], the half-maximal inhibitory concentration (IC50) is not above 2 µM. Take `CC(C)CCOc1ccc(C(=O)N2CCC3(CC2)Oc2ccccc2-c2c3cnn2C)cc1` [Compound 174]: the half-inhibitory concentration (IC50) was not above 2 µM. Then `Cn1cc2c(n1)-c1cc(F)ccc1OC21CCN(C(=O)c2ccccc2OC(F)(F)F)CC1` [Compound 175], with not above 2 µM.

What is called IC50 is the concentration needed to halve the response being measured.
